PubChem BioAssay AID330 (DTP/NCI, 2004)
Where “and” joins values, the source holds several entries; their conditions need not be identical. Identical values can stand only once. Toxic doses and inconclusive results are not listed. The calls were made as follows: active = survival T/C of 150% or more; inactive = T/C below 125% in these data.

System: P388 leukemia ip, CD2F1 mice, survival T/C
Experiment: NCI In Vivo Anticancer Drug Screen. Data for tumor model P388 Leukemia (intraperitoneal) in CD2F1 (CDF1) mice
Settings: endpoint: median survival time, higher = longer survival
In short: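 Mice carrying the transplanted tumor received test compound or vehicle. Survival was recorded in each group, and the value is the treated-group measurement divided by that of the vehicle-treated control group.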

[1] = dose: 100.0 mg/kg/injection, schedule: Q04DX003 (ip), vehicle: saline
[2] = dose: 50.0 mg/kg/injection, schedule: Q01DX005 (ip), vehicle: Klucel (hydroxypropylcellulose) (HPC)
[3] = dose: 100.0 mg/kg/injection, schedule: Q01DX005 (ip), vehicle: Klucel (hydroxypropylcellulose) (HPC)
[4] = dose: 60.0 mg/kg/injection, schedule: Q01DX005 (ip), vehicle: saline with Tween-80
[5] = dose: 120.0 mg/kg/injection, schedule: Q01DX005 (ip), vehicle: saline with Tween-80
[6] = dose: 240.0 mg/kg/injection, schedule: Q01DX005 (ip), vehicle: saline with Tween-80
[7] = dose: 50.0 mg/kg/injection, schedule: Q01DX005 (ip), vehicle: saline with Tween-80
[8] = dose: 100.0 mg/kg/injection, schedule: Q01DX005 (ip), vehicle: saline with Tween-80
[9] = dose: 200.0 mg/kg/injection, schedule: Q01DX005 (ip), vehicle: saline with Tween-80
[10] = dose: 50.0 mg/kg/injection, schedule: Q01DX009 (ip), vehicle: Klucel (hydroxypropylcellulose) (HPC)
[11] = dose: 100.0 mg/kg/injection, schedule: Q01DX009 (ip), vehicle: Klucel (hydroxypropylcellulose) (HPC)
[12] = dose: 12.5 mg/kg/injection, schedule: Q01DX009 (ip), vehicle: saline with Tween-80
[13] = dose: 25.0 mg/kg/injection, schedule: Q01DX009 (ip), vehicle: saline with Tween-80
[14] = dose: 100.0 mg/kg/injection, schedule: Q01DX009 (ip), vehicle: saline with Tween-80
[15] = dose: 200.0 mg/kg/injection, schedule: Q01DX009 (ip), vehicle: saline with Tween-80
[16] = dose: 50.0 mg/kg/injection, schedule: Q01DX009 (ip), vehicle: saline with Tween-80
[17] = dose: 50.0 mg/kg/injection, schedule: Q01DX009 (ip), vehicle: saline
[18] = dose: 100.0 mg/kg/injection, schedule: Q01DX009 (ip), vehicle: saline
[19] = dose: 200.0 mg/kg/injection, schedule: Q01DX009 (ip), vehicle: saline
[20] = dose: 60.0 mg/kg/injection, schedule: Q01DX005 (ip), vehicle: Klucel (hydroxypropylcellulose) (HPC)
[21] = dose: 120.0 mg/kg/injection, schedule: Q01DX005 (ip), vehicle: Klucel (hydroxypropylcellulose) (HPC)

Measured: T/C

COc1nc(N2CCNCC2)nc2c1CCCC2
inactive: dose: 60.0 mg/kg/injection, schedule: Q01DX005 (ip), vehicle: saline 93 % of control | dose: 120.0 mg/kg/injection, schedule: Q01DX005 (ip), vehicle: saline 103 % of control

CCN1CCC(C2(C(=O)OC)c3ccccc3-c3ccccc32)C1 (stereo not given)
inactive: dose: 6.25 mg/kg/injection, schedule: Q04DX003 (ip), vehicle: saline 106 % of control | dose: 12.5 mg/kg/injection, schedule: Q04DX003 (ip), vehicle: saline 108 % of control | dose: 25.0 mg/kg/injection, schedule: Q04DX003 (ip), vehicle: saline 103 % of control | [1] 104 % of control

COc1ccc2c(CSCCO)cc(=O)oc2c1
inactive: dose: 50.0 mg/kg/injection, schedule: Q04DX003 (ip), vehicle: suspension in saline 97 % of control | dose: 100.0 mg/kg/injection, schedule: Q04DX003 (ip), vehicle: suspension in saline 100 % of control | dose: 200.0 mg/kg/injection, schedule: Q04DX003 (ip), vehicle: suspension in saline 98 % of control

COc1cc(OC(=O)NCCCl)cc(OC)c1OC
inactive: [2] 101 % of control | [3] 108 % of control | dose: 200.0 mg/kg/injection, schedule: Q01DX005 (ip), vehicle: Klucel (hydroxypropylcellulose) (HPC) 92 % of control

O=C(Nc1cccc(S(=O)(=O)F)c1)Oc1ccc([N+](=O)[O-])cc1
inactive: [4] 113 % of control | [5] 111 % of control | [6] 93 % of control

COc1ccccc1C1NC(c2ccccc2OC)C2CCCC1C2=O (stereo not given)
inactive: [1] 88 % of control | dose: 200.0 mg/kg/injection, schedule: Q04DX003 (ip), vehicle: saline 88 % of control | dose: 400.0 mg/kg/injection, schedule: Q04DX003 (ip), vehicle: saline 90 % of control

CC(C)C1SCC(=O)N1N1C(=O)CSC1C(C)C (stereo not given)
inactive: [7] 94 % of control | [8] 93 % of control | [9] 98 % of control

Nc1nc(N)c2ncn(-c3ccc(Br)cc3)c2n1
inactive: [7] 95 % of control | [8] 92 % of control | [9] 91 % of control

NC(=N\O)/C(N)=N\O
inactive: [10] 100 % of control | [11] 98 % of control | dose: 200.0 mg/kg/injection, schedule: Q01DX009 (ip), vehicle: Klucel (hydroxypropylcellulose) (HPC) 106 % of control

Nc1nccc2c1ncn2C1OC(CO)C(O)C1O (stereo not given)
inactive: dose: 4.67 mg/kg/injection, schedule: Q03HX024 (ip), vehicle: saline with Tween-80 110 % of control | dose: 4.69 mg/kg/injection, schedule: Q03HX024 (ip), vehicle: saline with Tween-80 114 % of control | dose: 9.38 mg/kg/injection, schedule: Q03HX024 (ip), vehicle: saline with Tween-80 111 % of control and 112 % of control | [12] 94 % of control and 97 % of control | dose: 18.75 mg/kg/injection, schedule: Q03HX024 (ip), vehicle: saline with Tween-80 97 % of control | [13] 92 % of control and 93 % of control | dose: 37.5 mg/kg/injection, schedule: Q03HX024 (ip), vehicle: saline with Tween-80 112 % of control and 117 % of control | [14] 88 % of control and 94 % of control | [15] 86 % of control

CCCCOP(=O)(NNP(=O)(OCCCC)OCCCC)OCCCC
inactive: [13] 102 % of control | [16] 102 % of control | [14] 100 % of control | [15] 101 % of control

CC(C)(O)C1OCC(C2CCC3(C)C4=CCC5C(C)(C)C(O)CCC5(C)C4CCC23C)CC1O (stereo not given)
inactive: dose: 2.5 mg/kg/injection, schedule: Q01DX009 (ip), vehicle: alcohol 98 % of control | dose: 5.0 mg/kg/injection, schedule: Q01DX009 (ip), vehicle: alcohol 101 % of control | dose: 10.0 mg/kg/injection, schedule: Q01DX009 (ip), vehicle: alcohol 100 % of control | dose: 20.0 mg/kg/injection, schedule: Q01DX009 (ip), vehicle: alcohol 99 % of control | dose: 40.0 mg/kg/injection, schedule: Q01DX009 (ip), vehicle: alcohol 110 % of control

CS1(=O)=NC(=NC#N)c2ccccc21 (stereo not given)
inactive: [10] 101 % of control | [11] 94 % of control

COc1cc(OC)c2c(c1Cl)OCC2=O
inactive: dose: 50.0 mg/kg/injection, schedule: Q01DX009 (ip), vehicle: saline sonified 95 % of control | dose: 100.0 mg/kg/injection, schedule: Q01DX009 (ip), vehicle: saline sonified 104 % of control | dose: 200.0 mg/kg/injection, schedule: Q01DX009 (ip), vehicle: saline sonified 100 % of control

N=C(N)Sc1cc(O)ccc1O
inactive: dose: 75.0 mg/kg/injection, schedule: Q01DX009 (ip), vehicle: saline with Tween-80 118 % of control | dose: 150.0 mg/kg/injection, schedule: Q01DX009 (ip), vehicle: saline with Tween-80 113 % of control

Cc1ccc(O)c(C2CC(=O)NC(N)=N2)c1 (stereo not given)
inactive: [17] 110 % of control | [18] 101 % of control | [19] 104 % of control

Nc1ccc(CNC(=O)COc2cccc(Cl)c2)cc1
inactive: dose: 100.0 mg/kg/injection, schedule: Q04DX002 (ip), vehicle: Klucel (hydroxypropylcellulose) (HPC) 102 % of control | dose: 200.0 mg/kg/injection, schedule: Q04DX002 (ip), vehicle: Klucel (hydroxypropylcellulose) (HPC) 108 % of control | dose: 400.0 mg/kg/injection, schedule: Q04DX002 (ip), vehicle: Klucel (hydroxypropylcellulose) (HPC) 96 % of control

O=C1CN(C2CCCCC2Br)C(=O)CN1C1CCCCC1Br (stereo not given)
inactive: [20] 97 % of control | [21] 94 % of control | dose: 240.0 mg/kg/injection, schedule: Q01DX005 (ip), vehicle: Klucel (hydroxypropylcellulose) (HPC) 96 % of control

Cc1nc(Nc2ccccc2)c(C#N)c(=O)[nH]1
inactive: [4] 86 % of control | [5] 86 % of control | [6] 86 % of control

Cc1cnc(N/N=C/c2c(CO)cnc(C)c2O)s1
inactive: dose: 7.5 mg/kg/injection, schedule: Q01DX005 (ip), vehicle: Klucel (hydroxypropylcellulose) (HPC) 99 % of control | dose: 15.0 mg/kg/injection, schedule: Q01DX005 (ip), vehicle: Klucel (hydroxypropylcellulose) (HPC) 94 % of control | dose: 30.0 mg/kg/injection, schedule: Q01DX005 (ip), vehicle: Klucel (hydroxypropylcellulose) (HPC) 86 % of control | [5] 93 % of control | [6] 112 % of control

Cc1ccc(C2OC2(C(=O)C=[N+]=[N-])c2ccccc2)cc1 (stereo not given)
inactive: dose: 25.0 mg/kg/injection, schedule: Q01DX005 (ip), vehicle: saline with Tween-80 89 % of control | [7] 92 % of control | [8] 86 % of control | [9] 91 % of control

O=C(C1=C(Nc2ccccc2)CCC1)c1ccccc1
inactive: [17] 116 % of control | [18] 106 % of control | [19] 106 % of control

CCOC(CN=Cc1cc(C)c2[nH]c3ccccc3c2c1C)OCC
inactive: [7] 97 % of control | [8] 102 % of control | [9] 102 % of control

CC(C)CC1N=C(NN=C2CCCCC2)SP1(=O)NNc1ncccn1 (stereo not given)
inactive: [20] 94 % of control | [21] 97 % of control

CCCCCCCCCc1cc(CN2CCCCC2)c(O)c(CN2CCCCC2)c1
inactive: dose: 12.5 mg/kg/injection, schedule: Q01DX009 (ip), vehicle: saline 112 % of control | dose: 25.0 mg/kg/injection, schedule: Q01DX009 (ip), vehicle: saline 108 % of control | [17] 102 % of control

CC(C)(C)CC(C)(C)c1ccc(OCc2ccccc2Cl)cc1
inactive: [16] 98 % of control | [14] 95 % of control | [15] 100 % of control

O=C1c2ccccc2C(=O)c2c(NCCCC3CCCN4CCCCC34)cccc21 (stereo not given)
inactive: [2] 105 % of control | [3] 100 % of control

O=C1C2CCC(C2)[CH]1[Hg][Cl] (stereo not given)
inactive: dose: 6.25 mg/kg/injection, schedule: Q01DX009 (ip), vehicle: saline with Tween-80 107 % of control | [12] 112 % of control | [13] 88 % of control

CCN(CC)C(=O)C(F)C(F)(F)C(F)(F)COCc1ccccc1 (stereo not given)
inactive: [16] 99 % of control | [14] 100 % of control | [15] 100 % of control
